Source: patent publication US12448371B2, “Inhibitor compounds” (Cincera Therapeutics Pty Ltd, priority 2019, dated 2025)
Where a name gives a salt, the structure may show the parent alone.

Target: T1, Des1 (h) (Homo sapiens, UniProt O15121)
T1 construct: endogenous in cells; host or cells: parental Jurkat cells
T1 sequence (O15121 1-323): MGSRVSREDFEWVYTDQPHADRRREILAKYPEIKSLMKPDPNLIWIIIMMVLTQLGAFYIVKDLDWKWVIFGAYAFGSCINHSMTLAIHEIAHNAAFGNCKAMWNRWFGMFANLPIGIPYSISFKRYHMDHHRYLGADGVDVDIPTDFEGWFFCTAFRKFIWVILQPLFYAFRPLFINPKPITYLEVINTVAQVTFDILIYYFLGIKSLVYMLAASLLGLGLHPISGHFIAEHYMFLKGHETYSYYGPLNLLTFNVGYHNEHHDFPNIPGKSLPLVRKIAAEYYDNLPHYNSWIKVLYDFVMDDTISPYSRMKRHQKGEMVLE
Test: Measurement of Dihydroceramide Desaturase-1 (Des-1) activity in intact Jurkat cells labeled with DhCer-C6-NBD (HPLC)
Format: cell-based
Conditions: for IC50: intact Jurkat cells, given as concentration range, or <X / >X if measured at one concentration X only, read-out: Des1 (h) Jurkat IC50
Procedure: Measurement of Dihydroceramide Desaturase-1 (Des-1) Activity
Compounds were assessed for Des-1 inhibitory activity. Measurement of Des1 activity was performed by HPLC using intact Jurkat cells labeled with DhCer-C6-NBD as described previously (Munoz-Olaya, J. M. et al. ChemMedChem 2008, 3, 946-953) with modifications to enhance sensitivity and reproducibility. These modifications included the use of parental Jurkat cells, 0.5% serum in the culture media, and cell harvesting via centrifugation at 500×g to maximise ceramide extraction. Extracted samples (50 ul) were analysed on a Waters HPLC coupled to a fluorescence detector using a 30 cm C18 reverse-phase column eluted with 1 ml/min 20% H2O and 80% acetonitrile, both with a 0.1% of trifluoroacetic acid. NBD-labelled substrate and product were quantitated with an excitation and emission wavelengths of 465 nm and 530 nm, respectively.

IC50	SMILES	other results
100 to 1000 nM	N=C(NO)c1ccc(Nc2nnc(-c3ccc(C(F)(F)F)cc3)o2)cn1 [Example 5, 5-((5-[4-(Trifluoromethyl)phenyl]-1,3,4-oxadiazol-2-yl)amino)-N-hydroxy-pyridine-2-carboximidamide]	
1 to 10 nM	N/C(=N\O)c1ncc(Nc2ncc(-c3ccc(C(F)(F)F)cc3)o2)cc1O [Example 26, N′,3-Dihydroxy-5-((5-(4-(trifluoromethyl)phenyl)oxazol-2-yl)amino)picolinimidamide]	
< 100 nM	N=C(NO)c1ccc(Nc2ncc(-c3ccc(F)cn3)o2)nn1 [Example 49, 6-((5-(5-Fluoropyridin-2-yl)oxazol-2-yl)amino)-N′-hydroxypyridazine-3-carboximidamide]	
< 1000 nM	CN(O)C(=O)c1ccc(Nc2ncn(-c3ccc(C(F)(F)F)cc3)n2)cn1 [Example 25, N-Hydroxy-N-methyl-5-((1-(4-(trifluoromethyl)phenyl)-1H-1,2,4-triazol-3-yl)amino)picolinamide]	
< 1000 nM	N/C(=N\O)c1ccc(Nc2nc(-c3ccc(Cl)cc3)no2)cn1 [Example 78, 5-((3-(4-chlorophenyl)-1,2,4-oxadiazol-5-yl)amino)-N′-hydroxypicolinimidamide]	
	O=C(NC[C@@H](O)CO)c1ccc(Nc2ncc(-c3ccc(F)c(F)c3)o2)cn1 [Compound 97, (R)-5-((5-(3,4-Difluorophenyl)oxazol-2-yl)amino)-N-(2,3-dihydroxypropyl)picolinamide]	% inhibition of Des1 at 0.1 μM (Jurkat cells, 0.1 μM): 55%
	O=C(c1ccc(Nc2ncc(-c3ccc(C(F)(F)F)cc3)o2)cn1)N(O)CCO [Example 22, N-Hydroxy-N-(2-hydroxyethyl)-5-((5-(4-(trifluoromethyl)phenyl)oxazol-2-yl)amino)picolinamide]	% inhibition of Des1 at 10 μM (Jurkat cells, 10 μM): 81%
> 1000 nM	Cc1cc(Nc2ncc(-c3ccc(C(F)(F)F)cc3)o2)cnc1C(=O)N(C)O [Example 21, N-Hydroxy-N,3-dimethyl-5-((5-(4-(trifluoromethyl)phenyl)oxazol-2-yl)amino)picolinamide]	inhibition at 1 µM (Jurkat cells): 38%
1000 to 10000 nM	O=C(NCCO)c1ccc(Nc2ncc(-c3ccc(C(F)(F)F)cc3)o2)cn1 [Example 19, N-(2-Hydroxyethyl)-5-((5-(4-(trifluoromethyl)phenyl)oxazol-2-yl)amino)picolinamide]	
> 1000 nM	N/C(=N\O)c1ccc(Nc2nc(-c3ccc(Cl)cn3)no2)cn1 [Example 80, 5-((3-(5-Chloropyridin-2-yl)-1,2,4-oxadiazol-5-yl)amino)-N′-hydroxypicolinimidamide]	inhibition at 1 µM (Jurkat cells): 24%
> 1000 nM	O=C(NC[C@H](O)CO)c1ccc(Nc2ncc(-c3ccc(C(F)(F)F)cc3)o2)cn1 [Example 37, (S)—N-(2,3-Dihydroxypropyl)-5-((5-(4-(trifluoromethyl)phenyl)oxazol-2-yl)amino)picolinamide]	% inhibition of Des1 at 1 μM (Jurkat cells): no inhibition
> 1000 nM	N/C(=N/O)c1ccc(Nc2ncc(-c3ccc(N4CC(F)(F)C4)cc3)o2)cn1 [Example 64, 5-((5-(4-(3,3-Difluoroazetidin-1-yl)phenyl)oxazol-2-yl)amino)-N′-hydroxypicolinimidamide]	inhibition at 1 µM (Jurkat cells): 23%
> 1000 nM	O=S(=O)(NCC(O)CO)c1ccc(Nc2ncc(-c3ccc(C(F)(F)F)cc3)o2)cn1 (racemic) [Example 16, rac-N-(2,3-Dihydroxypropyl)-5-((5-[4-(trifluoromethyl)phenyl]-1,3-oxazol-2-yl)amino)pyridine-2-sulfonamide]	inhibition at 1 µM (Jurkat cells): 42%
< 100 nM	N/C(=N\O)c1ccc(Nc2ncc(-c3ccc(C(F)(F)F)cn3)o2)nn1 [Example 61, N′-hydroxy-6-((5-(5-(trifluoromethyl)pyridin-2-yl)oxazol-2-yl)amino)pyridazine-3-carboximidamide]	
< 1000 nM	O=c1cc(Nc2nnc(-c3ccc(C(F)(F)F)cc3)o2)ccn1O [Example 7, 1-Hydroxy-4-((5-[4-(trifluoromethyl)phenyl]-1,3,4-oxadiazol-2-yl)amino)-1,2-dihydropyridin-2-one]	
> 1000 nM	Cn1nc(-c2ccc(C(F)(F)F)cc2)cc1Nc1ccc(/C(N)=N\O)nc1 [Example 77, N′-Hydroxy-5-((1-methyl-3-(4-(trifluoromethyl)phenyl)-1H-pyrazol-5-yl)amino)picolinimidamide]	inhibition at 1 µM (Jurkat cells): 47%
< 1000 nM	CN(O)C(=O)c1ncc(Nc2ncc(-c3ccc(C(F)(F)F)cc3)o2)cc1O [Example 28, N,3-Dihydroxy-N-methyl-5-((5-(4-(trifluoromethyl)phenyl)oxazol-2-yl)amino)picolinamide]	
< 1000 nM	N/C(=N\O)c1ccc(Nc2nc(-c3ccc(C(F)(F)F)cc3)co2)cn1 [Example 60, N′-Hydroxy-5-((4-(4-(trifluoromethyl)phenyl)oxazol-2-yl)amino)picolinimidamide]	

IC50	SMILES	other results
1000 to 10000 nM	O=C(NO)c1ncc(Nc2ncc(-c3ccc(C(F)(F)F)cc3)o2)cn1 [Example 10]	
1 to 10 nM	O=C(NC[C@@H](O)CO)c1ccc(Nc2ncc(-c3ccc(C(F)(F)F)c(F)c3)o2)cn1 [Example 44, (R)—N-(2,3-Dihydroxypropyl)-5-((5-(3-fluoro-4-(trifluoromethyl)phenyl)oxazol-2-yl)amino)picolinamide]	
< 1000 nM	O=c1cc(Nc2ncc(-c3ccc(C(F)(F)F)cn3)o2)ccn1O [Example 68, 1-Hydroxy-4-((5-(5-(trifluoromethyl)pyridin-2-yl)oxazol-2-yl)amino)pyridin-2(1H)-one]	
> 1000 nM	Cl.N=C(NO)c1ccc(Nc2nnc(-c3ccc(C(F)(F)F)cn3)o2)cn1 [Example 69, N′-Hydroxy-5-((5-(5-(trifluoromethyl)pyridin-2-yl)-1,3,4-oxadiazol-2-yl)amino)picolinimidamide]	% inhibition of Des1 at 1 μM (Jurkat cells): no inhibition
> 1000 nM	CN(O)S(=O)(=O)c1ccc(Nc2ncc(-c3ccc(C(F)(F)F)cc3)o2)cn1 [Example 15, N-Hydroxy-N-methyl-5-((5-[4-(trifluoromethyl)phenyl]-1,3-oxazol-2-yl)amino) pyridine-2-sulfonamide]	inhibition at 1 µM (Jurkat cells): 46%
> 1000 nM	N/C(=N\O)c1cnc(Nc2ncc(-c3ccc(C(F)(F)F)cc3)o2)nc1 [Example 63, N′-Hydroxy-2-((5-(4-(trifluoromethyl)phenyl)oxazol-2-yl)amino)pyrimidine-5-carboximidamide]	inhibition at 1 µM (Jurkat cells): 23%
> 1000 nM	N/C(=N/O)c1ccc(Nc2ncc(-c3ncc(C(F)(F)F)cn3)o2)cn1 [Example 65, N′-Hydroxy-5-((5-(5-(trifluoromethyl)pyrimidin-2-yl)oxazol-2-yl)amino)picolinimidamide]	inhibition at 1 µM (Jurkat cells): 26%
> 1000 nM	N/C(=N\O)c1ccc(Nc2nc(-c3ccc(OC(F)(F)F)cn3)no2)cn1 [Example 88, N′-hydroxy-5-((3-(5-(trifluoromethoxy)pyridin-2-yl)-1,2,4-oxadiazol-5-yl)amino)picolinimidamide]	inhibition at 1 µM (Jurkat cells): 29%
100 to 1000 nM	O=C(NO)c1ccc(Nc2ncc(-c3ccc(C(F)(F)F)cc3)o2)nn1 [Example 11, N-Hydroxy-6-((5-[4-(trifluoromethyl)phenyl]-1,3-oxazol-2-yl)amino)pyridazine-3-carboxamide]	
100 to 1000 nM	NNC(=O)c1ccc(Nc2ncc(-c3ccc(C(F)(F)F)cc3)o2)cn1 [Compound 92, 5-((5-(4-(Trifluoromethyl)phenyl)oxazol-2-yl)amino)picolinohydrazide]	
> 1000 nM	N/C(=N\O)c1cnc(Nc2nc(-c3ccc(Cl)cn3)no2)cn1 [Example 81, 5-((3-(5-Chloropyridin-2-yl)-1,2,4-oxadiazol-5-yl)amino)-N′-hydroxypyrazine-2-carboximidamide]	inhibition at 1 µM (Jurkat cells): 7%
10 to 100 nM	N/C(=N\O)c1ncc(Nc2ncc(-c3ccc(C(F)(F)F)cn3)o2)cc1O [Example 40, N′,3-Dihydroxy-5-((5-(5-(trifluoromethyl)pyridin-2-yl)oxazol-2-yl)amino)picolinimidamide hydrochloride]	
< 1000 nM	N/C(=N\O)c1ccc(Nc2ncc(-c3ccc(Cl)cc3)o2)cn1 [Compound 100, 5-((5-(4-Chlorophenyl)oxazol-2-yl)amino)-N′-hydroxypicolinimidamide]	
< 1000 nM	N/C(=N\O)c1cnc(Nc2ncc(-c3ccc(Cl)cc3)o2)cn1 [Compound 101, 5-((5-(4-Chlorophenyl)oxazol-2-yl)amino)-N′-hydroxypyrazine-2-carboximidamide]	
100 to 1000 nM	N/C(=N\O)c1ccc(Nc2ncc(-c3ccc(C(F)F)cc3)o2)cn1 [Example 52, 5-((5-(4-(Difluoromethyl)phenyl)oxazol-2-yl)amino)-N′-hydroxypicolinimidamide]	
< 1000 nM	N=C(NO)c1cc(Nc2ncc(-c3ccc(C(F)(F)F)cc3)o2)ncc1O [Example 50, N,5-Dihydroxy-2-((5-(4-(trifluoromethyl)phenyl)oxazol-2-yl)amino)isonicotinimid-amide]	
< 1000 nM	Oc1ccc(Nc2ncc(-c3ccc(C(F)(F)F)cc3)o2)nc1 [Example 18, 6-((5-(4-(Trifluoromethyl)phenyl)oxazol-2-yl)amino)pyridin-3-ol]	
